Measurements: US11234984B2, “Solid dispersion” (Shizuoka Prefectural University Corporation, priority 2017, dated 2022)
Converted amounts (≈) assume the structure as drawn. Where two headings read alike, the source gives them in different places.

How the values were obtained:
[1] = Test Example 1. Solubility Test; format: physicochemical; settings: thermodynamic from solid, shaken at 37° C. for 2 hours, mean of two measurements, read-out: Solubility of Compound A
Protocol: 5 mL of a first fluid (pH1.2) or 5 mL of a […] for an elution test in Japanese Pharmacopoeia was added to the solid dispersions of Example 1 and Comparative Examples 1 to 8, and the sample of Comparative Example 9, the solid dispersions were ground using a glass rod or a spatula, and then shaken at 37° C. for 2 hours. 400 μL of a mixed solution (acetonitrile/water=3/2) was immediately added to 600 μL of the sample solution filtered off using a 0.45 μm filter, and a concentration of the compound A in the sample solution was measured by HPLC (Shimadzu Corporation). Here, values in the table are the mean values obtained by repeating measurements twice.

[2] = Test Example 2. Absorbability of the solid dispersion containing the compound A in rats; format: in vivo; settings: male, Crl:CD (SD), rat, plasma, po, 30 mg/kg, single dose 30 mg/kg as compound A, mean ± SD n=3
Protocol: A single dose of 10 mg/kg or 30 mg/kg, as the compound A, of the solid dispersions of Example 2 and Comparative Example 10, and the sample of Comparative Example 11 suspended in a 1% carboxymethylcellulose aqueous solution was orally administered to fasted male rats (8 weeks old, Crl:CD (SD), Japan Charles River Laboratories). A crystalline form of the compound A was used as a control (Comparative Example 12). A collection time was 0.5, 1, 2, 4, 8, and 24 hours after administration, and about 300 μL of blood was collected at each time point from vena caudalis (n=3). The obtained blood was centrifuged at 1500×g, 4° C. for 15 minutes to obtain a plasma. The concentration of the compound A in the plasma was measured by HPLC (Shiseido and Hitachi High-Technologies Corporation). A time to reach the highest concentration in the plasma (Tmax), the highest concentration in the plasma (Cmax) and an area under the plasma concentration-time curve (AUC) were calculated from the change in the concentration in the obtained plasma. Here, values in the table are the mean value±standard deviation of three examples.

Row | solubility at 2 h ([1]; pH 1.2, simulated gastric fluid, First fluid for dissolution test (pH1.2)) [µg/mL] | solubility at 2 h ([1]; pH 6.8, aqueous buffer, Second fluid for dissolution test (pH6.8)) [µg/mL] | Tmax [2] [h] | SMILES
1 | 0.39 (≈ 1.13 µM) | 0.49 (≈ 1.41 µM) |  | N#Cc1cc(-c2nc3c(O)ncnc3s2)ccc1Oc1ccccc1 [Comparative Example 9, 2-(3-cyano-4-phenoxyphenyl)-7-hydroxythiazolo[5,4-d]pyrimidine]
2 |  |  | 3.7 ± 3.8 | N#Cc1cc(-c2nc3c(O)ncnc3s2)ccc1Oc1ccccc1 [Comparative Example 11, 2-(3-cyano-4-phenoxyphenyl)-7-hydroxythiazolo[5,4-d]pyrimidine]
